Measured values as given in patent US20120142646A1, “Novel Compounds 621” (priority 2006, published 2012).
Structures can show the parent of a compound that is named as a salt.

Biological target: T1, Adrenergic β2 (Homo sapiens, UniProt P07550)
T1 construct: Adherent H292 cells were removed from tissue culture flasks; endogenous in cells; host or cells: H292 cells
Assay: Adrenergic β2 mediated cAMP production in H292 cells (AlphaScreen cAMP detection)
Format: cell-based
Parameters: key to β2 Int Act: fraction of formoterol maximum activity (formoterol = 1)
Conditions: Intrinsic Activity as a fraction relative to the maximum activity determined for formoterol
Method: Adrenergic β2 Mediated cAMP Production
H292 cells were grown in 225 cm2 flasks incubator at 37° C., 5% CO2 in RPMI medium containing, 10% (v/v) FBS (foetal bovine serum) and 2 mM L-glutamine.
Adherent H292 cells were removed from tissue culture flasks by treatment with Accutase™ cell detachment solution for 15 minutes. Flasks were incubated for 15 minutes in a humidified incubator at 37° C., 5% CO2. Detached cells were re-suspended in RPMI media (containing 10% (v/v) FBS and 2 mM L-glutamine) at 1×10^6 cells per mL. 10000 cells in 100 μL were added to each well of a tissue-culture-treated 96-well plate and the cells incubated overnight in a humidified incubator at 37° C., 5% CO2. The culture media was removed and cells were washed twice with 100 μL assay buffer and replaced with 50 μL assay buffer (HBSS solution containing 10 mM HEPES pH7.4 and 5 mM glucose). Cells were rested at room temperature for 20 minutes after which time 25 μL of rolipram (1.2 mM made up in assay buffer containing 2.4% (v/v) dimethylsulphoxide) was added. Cells were incubated with rolipram for 10 minutes after which time test compounds were added and the cells were incubated for 60 minutes at room temperature. The final rolipram concentration in the assay was 300 μM and final vehicle concentration was 1.6% (v/v) dimethylsulphoxide. The reaction was stopped by removing supernatants, washing once with 100 μL assay buffer and replacing with 50 μL lysis buffer. The cell monolayer was frozen at −80° C. for 30 minutes (or overnight).
AlphaScreen™ cAMP Detection
The concentration of cAMP (cyclic adenosine monophosphate) in the cell lysate was determined using AlphaScreen™ methodology. The frozen cell plate was thawed for 20 minutes on a plate shaker then 10 μL of the cell lysate was transferred to a 96-well white plate. 40 μL of mixed AlphaScreen™ detection beads pre-incubated with biotinylated cAMP, was added to each well and the plate incubated at room temperature for 10 hours in the dark. The AlphaScreen™ signal was measured using an EnVision spectrophotometer (Perkin-Elmer Inc.) with the recommended manufacturer's settings. cAMP concentrations were determined by reference to a calibration curve determined in the same experiment using standard cAMP concentrations. Concentration response curves for agonists were constructed and data was fitted to a four parameter logistic equation to determine both the pEC50 and Intrinsic Activity. Intrinsic Activity was expressed as a fraction relative to the maximum activity determined for formoterol in each experiment.

T1 sequence (P07550 whole entry): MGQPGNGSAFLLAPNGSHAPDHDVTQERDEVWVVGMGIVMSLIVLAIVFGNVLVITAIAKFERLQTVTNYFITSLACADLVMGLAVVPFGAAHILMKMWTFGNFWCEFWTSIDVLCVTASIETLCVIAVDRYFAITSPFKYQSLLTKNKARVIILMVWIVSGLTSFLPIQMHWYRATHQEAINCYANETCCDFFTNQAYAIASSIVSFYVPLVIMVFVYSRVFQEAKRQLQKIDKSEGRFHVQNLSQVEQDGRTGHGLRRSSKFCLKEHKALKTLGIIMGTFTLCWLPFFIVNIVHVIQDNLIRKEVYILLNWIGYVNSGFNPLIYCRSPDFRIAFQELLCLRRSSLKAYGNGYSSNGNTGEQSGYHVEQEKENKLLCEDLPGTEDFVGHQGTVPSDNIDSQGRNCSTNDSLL

| SMILES | β2 Int Act |
| --- | --- |
| CCCC[C@@H](C)N(CCNCCc1ccc(O)c2c1OCC(=O)N2)C(=O)CCNCCc1cc(F)ccc1F [Example 54, (R)-3-(2,5-Difluorophenethylamino)-N-(hexan-2-yl)-N-(2-(2-(5-hydroxy-3-oxo-3,4-dihydro-2H-benzo[b][1,4]oxazin-8-yl)ethylamino)ethyl)propanamide bis(trifluoroacetate)] | 0.96 |
| CCCC[C@@H](C)N(CCNCCc1ccc(O)c2c1OCC(=O)N2)C(=O)CCNCCc1cccc(F)c1F [Example 53, (R)-3-(2,3-Difluorophenethylamino)-N-(hexan-2-yl)-N-(2-(2-(5-hydroxy-3-oxo-3,4-dihydro-2H-benzo[b][1,4]oxazin-8-yl)ethylamino)ethyl)propanamide bis(trifluoroacetate)] | 0.99 |
| C[C@H](C1CCCCC1)N(CCNCCc1ccc(O)c2c1OCC(=O)N2)C(=O)CCNCCc1ccccc1 [Example 61, (R)—N-(1-Cyclohexylethyl)-N-(2-(2-(5-hydroxy-3-oxo-3,4-dihydro-2H-benzo[b][1,4]oxazin-8-yl)ethylamino)ethyl)-3-(phenethylamino)propanamide bis(trifluoroacetate)] | 0.84 |
| O=C(CCNCCc1cc(F)cc(F)c1)N(CCNCCc1ccc(O)c2[nH]c(=O)ccc12)C1CCCCC1 [Example 15, N-Cyclohexyl-3-(3,5-difluorophenethylamino)-N-(2-(2-(8-hydroxy-2-oxo-1,2-dihydroquinolin-5-yl)ethylamino)ethyl)propanamide bis(trifluoroacetate)] | 0.88 |
| O=C1COc2c(CCNCCN(C(=O)CCNCCc3ccccc3)C3CCCCCC3)ccc(O)c2N1 [Example 24, N-Cycloheptyl-N-(2-(2-(5-hydroxy-3-oxo-3,4-dihydro-2H-benzo[b][1,4]oxazin-8-yl)ethylamino)ethyl)-3-(phenethylamino)propanamide bis(trifluoroacetate)] | 0.85 |
| O=C1COc2c(CCNCCN(C(=O)CCNCCc3cccc(Cl)c3Cl)C3CCCCC3)ccc(O)c2N1 [Example 29, N-Cyclohexyl-3-(2,3-dichlorophenethylamino)-N-(2-(2-(5-hydroxy-3-oxo-3,4-dihydro-2H-benzo[b][1,4]oxazin-8-yl)ethylamino)ethyl)propanamide bis(trifluoroacetate)] | 0.91 |
| O=C1COc2c(CCNCCN(C(=O)CCNCCc3ccc(F)c(Cl)c3)C3CCCCC3)ccc(O)c2N1 [Example 37, 3-(3-Chloro-4-fluorophenethylamino)-N-cyclohexyl-N-(2-(2-(5-hydroxy-3-oxo-3,4-dihydro-2H-benzo[b][1,4]oxazin-8-yl)ethylamino)ethyl)propanamide bis(trifluoroacetate)] | 0.89 |
| O=C(CCNCCc1cc(F)ccc1F)N(CCNCCc1ccc(O)c2[nH]c(=O)ccc12)C1CCCCC1 [Example 17, N-Cyclohexyl-3-(2,5-difluorophenethylamino)-N-(2-(2-(8-hydroxy-2-oxo-1,2-dihydroquinolin-5-yl)ethylamino)ethyl)propanamide bis(trifluoroacetate)] | 0.93 |
| O=C1COc2c(CCNCCN(C(=O)CCNCCc3cccc(F)c3F)C3CCCCC3)ccc(O)c2N1 [Example 36, N-Cyclohexyl-3-(2,3-difluorophenethylamino)-N-(2-(2-(5-hydroxy-3-oxo-3,4-dihydro-2H-benzo[b][1,4]oxazin-8-yl)ethylamino)ethyl)propanamide bis(trifluoroacetate)] | 0.91 |
| O=C1COc2c(CCNCCN(C(=O)CCNCCc3cc(F)cc(F)c3)C3CCCCCC3)ccc(O)c2N1 [Example 65, N-Cycloheptyl-3-(3,5-difluorophenethylamino)-N-(2-(2-(5-hydroxy-3-oxo-3,4-dihydro-2H-benzo[b][1,4]oxazin-8-yl)ethylamino)ethyl)propanamide bis(trifluoroacetate)] | 0.93 |
| O=C1COc2c(CCNCCN(C(=O)CCNCCc3cc(Cl)ccc3F)C3CCCCC3)ccc(O)c2N1 [Example 34, 3-(5-Chloro-2-fluorophenethylamino)-N-cyclohexyl-N-(2-(2-(5-hydroxy-3-oxo-3,4-dihydro-2H-benzo[b][1,4]oxazin-8-yl)ethylamino)ethyl)propanamide bis(trifluoroacetate)] | 0.9 |
| CC[C@@H](C)N(CCNCCc1ccc(O)c2c1OCC(=O)N2)C(=O)CCNCCc1ccc(Cl)c(Cl)c1 [Example 58, (R)—N-sec-Butyl-3-(3,4-dichlorophenethylamino)-N-(2-(2-(5-hydroxy-3-oxo-3,4-dihydro-2H-benzo[b][1,4]oxazin-8-yl)ethylamino)ethyl)propanamide dihydrochloride] | 0.91 |
| CCCC[C@@H](C)N(CCNCCc1ccc(O)c2c1OCC(=O)N2)C(=O)CCNCCc1ccc(F)c(F)c1 [Example 52, (R)-3-(3,4-Difluorophenethylamino)-N-(hexan-2-yl)-N-(2-(2-(5-hydroxy-3-oxo-3,4-dihydro-2H-benzo[b][1,4]oxazin-8-yl)ethylamino)ethyl)propanamide bis(trifluoroacetate)] | 0.95 |
| O=C(CCNCCc1ccc(F)c(F)c1)N(CCNCCc1ccc(O)c2[nH]c(=O)ccc12)C1CCCCC1 [Example 16, N-Cyclohexyl-3-(3,4-difluorophenethylamino)-N-(2-(2-(8-hydroxy-2-oxo-1,2-dihydroquinolin-5-yl)ethylamino)ethyl)propanamide bis(trifluoroacetate)] | 0.85 |
| O=C(CCNCCc1ccc(F)cc1)N(CCNCCc1ccc(O)c2[nH]c(=O)ccc12)C1CCCCCC1 [Example 6, N-Cycloheptyl-3-(4-fluorophenethylamino)-N-(2-(2-(8-hydroxy-2-oxo-1,2-dihydroquinolin-5-yl)ethylamino)ethyl)propanamide bis(trifluoroacetate)] | 0.65 |
| O=C(CCNCCc1ccccc1)N(CCNCCc1ccc(O)c2[nH]c(=O)ccc12)C1CCCCCC1 [Example 7, N-Cycloheptyl-N-(2-(2-(8-hydroxy-2-oxo-1,2-dihydroquinolin-5-yl)ethylamino)ethyl)-3-(phenethylamino)propanamide bis(trifluoroacetate)] | 0.76 |
| O=C1COc2c(CCNCCN(C(=O)CCNCCc3ccc(Cl)cc3)C3CCCCCC3)ccc(O)c2N1 [Example 63, 3-(4-Chlorophenethylamino)-N-cycloheptyl-N-(2-(2-(5-hydroxy-3-oxo-3,4-dihydro-2H-benzo[b][1,4]oxazin-8-yl)ethylamino)ethyl)propanamide bis(trifluoroacetate)] | 0.79 |
| O=C1COc2c(CCNCCN(C(=O)CCNCCc3ccc(Cl)c(Cl)c3)C3CCCCCC3)ccc(O)c2N1 [Example 26, N-Cycloheptyl-3-(3,4-dichlorophenethylamino)-N-(2-(2-(5-hydroxy-3-oxo-3,4-dihydro-2H-benzo[b][1,4]oxazin-8-yl)ethylamino)ethyl)propanamide bis(trifluoroacetate)] | 0.74 |
| O=CNc1cc(CCNCCN(C(=O)CCNCCc2ccccc2)C2CCCCC2)ccc1O [Example 21, N-Cyclohexyl-N-(2-(3-formamido-4-hydroxyphenethylamino)ethyl)-3-(phenethylamino)propanamide] | 0.83 |
| O=C1COc2c(CCNCCN(C(=O)CCOCCc3ccccc3F)C3CCCCC3)ccc(O)c2N1 [Example 76, N-Cyclohexyl-3-(2-fluorophenethoxy)-N-(2-(2-(5-hydroxy-3-oxo-3,4-dihydro-2H-benzo[b][1,4]oxazin-8-yl)ethylamino)ethyl)propanamide trifluoroacetate] | 1.1 |
| Cc1cccc(CCNCCC(=O)N(CCNCCc2ccc(O)c3[nH]c(=O)ccc23)C2CCCCCC2)c1 [Example 8, N-Cycloheptyl-N-(2-(2-(8-hydroxy-2-oxo-1,2-dihydroquinolin-5-yl)ethylamino)ethyl)-3-(3-methylphenethylamino)propanamide bis(trifluoroacetate)] | 0.79 |
| Cc1ccc(F)c(CCNCCC(=O)N(CCNCCc2ccc(O)c3c2OCC(=O)N3)C2CCCCC2)c1 [Example 33, N-Cyclohexyl-3-(2-fluoro-5-methylphenethylamino)-N-(2-(2-(5-hydroxy-3-oxo-3,4-dihydro-2H-benzo[b][1,4]oxazin-8-yl)ethylamino)ethyl)propanamide bis(trifluoroacetate)] | 0.9 |
